Laboratory results: patent US7423030B2, “1-amino-phthalazine derivatives, the preparation and the therapeutic use thereof” (Sanofi-Aventis, priority 2004, dated 2008)
Where a name gives a salt, the structure may show the parent alone.

Compared with `COc1ccc2c(COCc3ccccc3)nnc(NC3CCN(Cc4ccc5ccccc5c4)CC3)c2c1.Cl.Cl`, `COc1ccc2c(Cc3ccccc3)nnc(NC3CCN(Cc4ccc5ccccc5c4)CC3)c2c1` (as salt: salt) (hydrate or solvate) [Compound 21, 4-Benzyl-7-methoxy-N-[1-(naphthalen-2-ylmethyl)piperidin-4-yl]phthalazin-1-amine] is lower in melting point: 284 °C for the first, 104 °C for the second.

Compared with `COc1ccc(-c2nnc(NC3CCN(Cc4ccc(CO)cc4)CC3)c3cc(OC)ccc23)cc1.Cl.Cl`, `COc1ccc(-c2nnc(NC3CCN(Cc4ccc(CN)cc4)CC3)c3cc(OC)ccc23)cc1.Cl.Cl.Cl` is higher in melting point: 139 °C for the first, 203 °C for the second.

First: COc1ccc2cnnc(NC3CCN(Cc4ccc5ccccc5c4)CC3)c2c1 (as salt: HCl) (hydrate or solvate) [Compound 70, 7-methoxy-N-[1-(2-naphthylmethyl)piperidin-4-yl]-phthalazin-1-amine]
Second: COc1ccc2c(CO)nnc(NC3CCN(Cc4ccc5ccccc5c4)CC3)c2c1 (as salt: HCl) (hydrate or solvate) [Compound 148, 4-Hydroxymethyl-7-methoxy-N-[1-(naphthalen-2-ylmethyl)piperidin-4-yl]phthalazin-1-amine]
The melting point of the first is higher: 189 °C for the first, 186 °C for the second.

Going from `COc1ccc(-c2nnc(N[C@H]3CCN(Cc4ccc5ccccc5c4)C3)c3cc(OC)ccc23)cc1` (as salt: HCl) (hydrate or solvate) [Compound 96, 4-(4-Methoxyphenyl)-7-methoxy-N-[(3S)-1-(naphthalen-2-ylmethyl)pyrrolidin-3-yl]phthalazin-1-amine] to `COc1ccc(-c2nnc(NC3CCN(Cc4ccc5ccccc5c4)CC3)c3cc(OC)ccc23)cc1` (as salt: salt) (hydrate or solvate) [Compound 3, 7-methoxy-4-(4-methoxyphenyl)-N-[1-(naphthalen-2-ylmethyl)piperidin-4-yl]phthalazin-1-amine], the melting point falls from 280 °C to 195 °C.

`COC(=O)c1ccc(CN2CCC(Nc3nnc(-c4ccc(OC)cc4)c4ccc(OC)cc34)CC2)cc1` (as salt: HCl) (hydrate or solvate) [Compound 107, methyl {4-[(4-{[7-methoxy-4-(4-methoxyphenyl)phthalazin-1-yl]amino}piperidin-1-yl)methyl]phenyl}carboxylate] and `COc1ccc(-c2nnc(NC3CCN(Cc4ccc(C(C)=O)cc4)CC3)c3cc(OC)ccc23)cc1` (as salt: HCl) (hydrate or solvate) [Compound 121, 1-{4-[(4-{[7-methoxy-4-(4-methoxyphenyl)phthalazin-1-yl]amino}piperidin-1-yl)methyl]phenyl}ethanone] are the same in melting point: 241 °C for the first, 241 °C for the second.

First: COc1ccc(-c2nnc(NC3CCN(Cc4ccc(C#N)cc4)CC3)c3cc(OC)ccc23)cc1 (as salt: HCl) (hydrate or solvate) [Compound 108, N-[1-(4-cyanobenzyl)piperidin-4-yl)-7-methoxy-4-(4-methoxyphenyl)phthalazin-1-amine]
Second: COc1ccc(-c2nnc(NC3CCN(Cc4ccc(C)cc4)CC3)c3cc(OC)ccc23)cc1 (as salt: HCl) [Compound 75, 7-methoxy-4-(4-methoxyphenyl)-N-[1-(4-methylbenzyl)piperidin-4-yl]phthalazin-1-amine]
The melting point of the first is higher: 270 °C for the first, 148 °C for the second.

First: COc1ccc(-c2nnc(NC3CC4CCC(C3)N4Cc3ccc4ccccc4c3)c3cc(OC)ccc23)cc1 (stereo not shown) (as salt: salt) (hydrate or solvate)
Second: COc1ccc(-c2nnc(NC3CCN(Cc4ccc5ccccc5c4)CC3)c3cc(C)ccc23)cc1 (as salt: salt) (hydrate or solvate) [Compound 9, 4-(4-methoxyphenyl)-7-methyl-N-[1-(naphthalen-2-ylmethyl)piperidin-4-yl]phthalazin-1-amine]
The melting point of the first is lower: 176 °C for the first, 198 °C for the second.

Compared with `COc1ccc2c(-c3ccccc3)nnc(NC3CCN(Cc4ccc5ccccc5c4)CC3)c2c1` (as salt: salt) (hydrate or solvate) [Compound 1, 7-methoxy-N-[1-(naphthalen-2-ylmethyl)piperidin-4-yl]-4-phenylphthalazin-1-amine], `COc1ccc2c(-c3ccc(F)cc3)nnc(NC3CCN(Cc4ccc5ccccc5c4)CC3)c2c1` (as salt: salt) (hydrate or solvate) [Compound 82, 4-(4-Fluorophenyl)-7-methoxy-N-[1-(naphthalen-2-ylmethyl)piperidin-4-yl]phthalazin-1-amine] is higher in melting point: 121 °C for the first, 175 °C for the second.

First: COc1ccc2c(-c3ccccc3OC)nnc(NC3CCN(Cc4ccc5ccccc5c4)CC3)c2c1 (as salt: salt) (hydrate or solvate) [Compound 2, 7-methoxy-4-(2-methoxyphenyl)-N-[1-(naphthalen-2-ylmethyl)piperidin-4-yl]phthalazin-1-amine]
Second: COc1cccc(-c2nnc(NC3CCN(Cc4ccc5ccccc5c4)CC3)c3cc(OC)ccc23)c1 (as salt: salt) (hydrate or solvate) [Compound 5, 7-methoxy-4-(3-methoxyphenyl)-N-[1-(naphthalen-2-ylmethyl)piperidin-4-yl]phthalazin-1-amine]
The melting point of the first is higher: 158 °C for the first, 154 °C for the second.

First: COc1cccc(-c2nnc(NC3CCN(Cc4ccccc4)CC3)c3cc(OC)ccc23)c1 (as salt: salt) (hydrate or solvate) [Compound 6, N-(1-benzylpiperidin-4-yl)-7-methoxy-4-(3-methoxyphenyl)phthalazin-1-amine]
Second: COc1ccc(-c2nnc(NC3CCN(Cc4ccccc4)CC3)c3cc(OC)ccc23)cc1 (as salt: salt) (hydrate or solvate) [Compound 7, N-(1-benzylpiperidin-4-yl)-7-methoxy-4-(4-methoxyphenyl)phthalazin-1-amine]
The melting point of the first is higher: 176 °C for the first, 150 °C for the second.

Going from `COc1ccc2c(-c3cccs3)nnc(NC3CCN(Cc4ccccc4)CC3)c2c1` (as salt: salt) (hydrate or solvate) [Compound 8, N-(1-benzylpiperidin-4-yl)-7-methoxy-4-(thiophen-2-yl)phthalazin-1-amine] to `COc1ccc2c(-c3ccc(C)s3)nnc(NC3CCN(Cc4ccccc4)CC3)c2c1` (as salt: salt) (hydrate or solvate) [Compound 16, N-(1-benzylpiperidin-4-yl)-7-methoxy-4-(5-methylthiophen-2-yl)phthalazin-1-amine], the melting point rises from 115 °C to 155 °C.

Going from `COc1ccc2c(-c3ccc(OC)c(OC)c3)nnc(NC3CCN(Cc4ccc5ccccc5c4)CC3)c2c1` (as salt: salt) (hydrate or solvate) [Compound 10, 4-(3,4-Dimethoxyphenyl)-7-methoxy-N-[1-(naphthalen-2-ylmethyl)piperidin-4-yl]phthalazin-1-amine] to `COc1ccc(-c2nnc(NC3CCN(Cc4ccc(C)c(C)c4)CC3)c3cc(OC)ccc23)cc1` (as salt: salt) (hydrate or solvate) [Compound 29, N-[1-(3,4-dimethylbenzyl)piperidin-4-yl]-7-methoxy-4-(4-methoxyphenyl)phthalazin-1-amine], the melting point falls from 131 °C to 130 °C.

Compared with `COc1cc(OC)c2cnnc(NC3CCN(Cc4ccccc4)CC3)c2c1` (as salt: salt) (hydrate or solvate) [Compound 13, N-(1-benzylpiperidin-4-yl)-5,7-dimethoxyphthalazin-1-amine], `COc1cc(OC)c2cnnc(NC3CCN(Cc4ccc5ccccc5c4)CC3)c2c1` (as salt: salt) (hydrate or solvate) [Compound 14, 5,7-dimethoxy-N-[1-(naphthalen-2-ylmethyl)piperidin-4-yl]phthalazin-1-amine] is higher in melting point: 169 °C for the first, 206 °C for the second.

Compared with `COc1ccc(-c2nnc(NC3CCN(Cc4cccc(C#N)c4)CC3)c3cc(OC)ccc23)cc1` (as salt: salt) (hydrate or solvate) [Compound 18, N-[1-(3-cyanophenylmethyl)-piperidin-4-yl]-7-methoxy-4-(4-methoxyphenyl)phthalazin-1-amine], `COc1ccc(-c2nnc(NC3CCN(Cc4ccc5ncsc5c4)CC3)c3cc(OC)ccc23)cc1` (as salt: salt) (hydrate or solvate) [Compound 59, N-[1-(1,3-benzothiazol-6-ylmethyl)piperidin-4-yl]-7-methoxy-4-(4-methoxyphenyl)phthalazin-1-amine] is higher in melting point: 115 °C for the first, 180 °C for the second.

Compared with `CCc1nnc(NC2CCN(Cc3ccc4ccccc4c3)CC2)c2cc(OC)ccc12` (as salt: salt) (hydrate or solvate) [Compound 20, 4-Ethyl-7-methoxy-N-[1-(naphthalen-2-ylmethyl)piperidin-4-yl]phthalazin-1-amine], `CCCCc1nnc(NC2CCN(Cc3ccc4ccccc4c3)CC2)c2cc(OC)ccc12` (as salt: salt) (hydrate or solvate) [Compound 67, 4-Butyl-7-methoxy-N-[1-(naphthalen-2-ylmethyl)piperidin-4-yl]phthalazin-1-amine] is lower in melting point: 135 °C for the first, 101 °C for the second.

First: CCc1nnc(NC2CCN(Cc3ccc4ccccc4c3)CC2)c2cc(OC)cc(OC)c12 (as salt: salt) (hydrate or solvate) [Compound 23, 5,7-Dimethoxy-4-ethyl-N-[1-(naphthalen-2-ylmethyl)piperidin-4-yl]phthalazin-1-amine]
Second: COc1ccc(-c2nnc(NC3CCN(Cc4ccc5sccc5c4)CC3)c3cc(OC)ccc23)cc1 (as salt: salt) (hydrate or solvate) [Compound 60, N-[1-(1-benzothien-5-ylmethyl)piperidin-4-yl]-7-methoxy-4-(4-methoxyphenyl)phthalazin-1-amine]
The melting point of the first is higher: 250 °C for the first, 176 °C for the second.

First: COc1ccc(-c2nnc(NC3CCN(Cc4ccc5occc5c4)CC3)c3cc(OC)ccc23)cc1 (as salt: salt) (hydrate or solvate) [Compound 26, N-[1-(1-benzofuran-5-ylmethyl)piperidin-4-yl]-7-methoxy-4-(4-methoxyphenyl)phthalazin-1-amine]
Second: COc1ccc(-c2nnc(NC3CCN(Cc4c[nH]c5ccccc45)CC3)c3cc(OC)ccc23)cc1 (as salt: salt) (hydrate or solvate) [Compound 65, N-[1-(1H-indol-3-ylmethyl)piperidin-4-yl]-7-methoxy-4-(4-methoxyphenyl)phthalazin-1-amine]
The melting point of the first is lower: 160 °C for the first, 257 °C for the second.
